Results on 27 molecules are retold here after US20090311217A1, “3-SUBSTITUTED-1H-INDOLE COMPOUNDS, THEIR USE AS MTOR KINASE AND PI3 KINASE INHIBITORS, AND THEIR SYNTHESES” (priority 2008, published 2009).

For orientation: IC50 means the midpoint of a concentration-inhibition curve.

Holding throughout (format): biochemical
For one assay, the target named is PI3K-alpha (Homo sapiens, UniProt P42336). The experiment in a line: PI3K-alpha fluorescence polarization assay.
The target in the next assay is PI3K-gamma (Homo sapiens, UniProt P48736). The assay is described as follows: PI3K-gamma fluorescence polarization assay. The note with it: PI3Kγ Avg. IC50. In short, it runs like this: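 Enzyme 5 ng; substrate diC8-PI(4,5)P2 2.5 μM; ATP 25 μM; 5 mM HEPES pH 7, 2.5 mM MgCl2; DMSO ≤2%; 1 h, 25° C. Quench 10 mM EDTA. Detect with GRP1 PH domain 100 nM + TMR-IP4 probe 5 nM by polarization.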
Sequence of PI3K-gamma (P48736 whole entry, species assumed, the tested form may be a part): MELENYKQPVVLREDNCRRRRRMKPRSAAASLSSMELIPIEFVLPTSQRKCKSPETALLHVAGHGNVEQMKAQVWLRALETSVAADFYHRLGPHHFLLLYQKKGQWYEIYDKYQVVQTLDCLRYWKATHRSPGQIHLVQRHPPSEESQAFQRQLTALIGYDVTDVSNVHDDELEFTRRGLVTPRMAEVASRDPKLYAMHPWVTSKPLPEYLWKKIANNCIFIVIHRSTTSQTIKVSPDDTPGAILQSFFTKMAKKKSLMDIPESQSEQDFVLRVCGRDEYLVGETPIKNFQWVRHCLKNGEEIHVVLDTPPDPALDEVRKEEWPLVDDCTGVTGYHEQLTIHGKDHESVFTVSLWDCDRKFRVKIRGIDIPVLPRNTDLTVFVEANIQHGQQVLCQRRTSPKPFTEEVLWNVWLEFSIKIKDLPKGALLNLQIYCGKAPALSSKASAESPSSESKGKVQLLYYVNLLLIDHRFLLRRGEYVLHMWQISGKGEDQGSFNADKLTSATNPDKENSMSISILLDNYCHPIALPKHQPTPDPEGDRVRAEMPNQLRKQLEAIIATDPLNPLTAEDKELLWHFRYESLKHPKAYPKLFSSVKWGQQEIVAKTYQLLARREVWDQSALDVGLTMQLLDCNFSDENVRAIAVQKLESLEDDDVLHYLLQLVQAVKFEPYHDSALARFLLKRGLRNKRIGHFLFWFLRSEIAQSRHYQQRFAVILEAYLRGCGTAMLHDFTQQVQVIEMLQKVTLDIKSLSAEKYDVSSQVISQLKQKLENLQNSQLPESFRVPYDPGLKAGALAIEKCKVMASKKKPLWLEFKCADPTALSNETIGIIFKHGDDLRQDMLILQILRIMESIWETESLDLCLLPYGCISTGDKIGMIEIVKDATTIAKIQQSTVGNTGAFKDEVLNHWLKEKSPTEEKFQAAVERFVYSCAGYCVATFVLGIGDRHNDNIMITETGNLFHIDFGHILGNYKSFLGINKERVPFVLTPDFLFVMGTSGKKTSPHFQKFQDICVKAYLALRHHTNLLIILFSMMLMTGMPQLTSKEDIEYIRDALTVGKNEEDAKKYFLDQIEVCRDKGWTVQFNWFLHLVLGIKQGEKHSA
(In general: In fluorescence polarisation assays a small probe gives low polarisation when free and higher when bound to something large.)

In the next assay the target is T1, human TOR (Homo sapiens, UniProt P42345).
T1 construct: FLAG
The assay is described as follows: mTOR enzyme assay (DELFIA, His6-S6K substrate). As to conditions: read-out: mTOR Kinase Avg. IC50.

Molecules are shown by their SMILES. Read-outs that look alike come from different tables or passages of the source. Some results are limits rather than exact numbers.

Sequence of PI3K-alpha (P42336 whole entry, species assumed, the tested form may be a part): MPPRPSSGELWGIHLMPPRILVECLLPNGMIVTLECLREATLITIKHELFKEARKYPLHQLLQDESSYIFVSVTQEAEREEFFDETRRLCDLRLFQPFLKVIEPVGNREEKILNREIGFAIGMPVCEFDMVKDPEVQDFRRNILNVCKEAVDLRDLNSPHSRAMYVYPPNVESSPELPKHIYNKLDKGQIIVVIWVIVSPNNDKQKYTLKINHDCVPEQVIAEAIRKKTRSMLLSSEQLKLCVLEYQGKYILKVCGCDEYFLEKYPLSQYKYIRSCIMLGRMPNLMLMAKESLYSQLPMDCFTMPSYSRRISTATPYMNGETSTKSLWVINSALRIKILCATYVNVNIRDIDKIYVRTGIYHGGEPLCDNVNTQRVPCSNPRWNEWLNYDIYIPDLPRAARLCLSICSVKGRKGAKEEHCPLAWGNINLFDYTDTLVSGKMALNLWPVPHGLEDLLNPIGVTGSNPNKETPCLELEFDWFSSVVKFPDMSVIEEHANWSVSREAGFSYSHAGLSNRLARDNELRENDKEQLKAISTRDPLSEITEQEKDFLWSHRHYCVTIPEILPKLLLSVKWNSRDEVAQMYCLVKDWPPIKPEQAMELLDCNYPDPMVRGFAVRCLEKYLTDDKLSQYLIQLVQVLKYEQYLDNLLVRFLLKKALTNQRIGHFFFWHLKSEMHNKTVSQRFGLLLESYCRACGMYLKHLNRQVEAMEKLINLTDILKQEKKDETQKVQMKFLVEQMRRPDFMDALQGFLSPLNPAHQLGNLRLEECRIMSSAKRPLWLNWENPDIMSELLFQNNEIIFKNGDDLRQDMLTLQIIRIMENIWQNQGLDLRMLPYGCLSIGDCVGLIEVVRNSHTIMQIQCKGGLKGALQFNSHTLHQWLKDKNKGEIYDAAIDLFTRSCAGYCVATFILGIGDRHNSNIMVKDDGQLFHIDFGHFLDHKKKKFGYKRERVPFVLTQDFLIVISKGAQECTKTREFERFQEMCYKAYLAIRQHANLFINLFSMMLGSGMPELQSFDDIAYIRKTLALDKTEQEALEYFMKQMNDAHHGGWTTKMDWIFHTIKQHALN
Sequence of PI3K-alpha (P27986 whole entry partner, species assumed, the tested form may be a part): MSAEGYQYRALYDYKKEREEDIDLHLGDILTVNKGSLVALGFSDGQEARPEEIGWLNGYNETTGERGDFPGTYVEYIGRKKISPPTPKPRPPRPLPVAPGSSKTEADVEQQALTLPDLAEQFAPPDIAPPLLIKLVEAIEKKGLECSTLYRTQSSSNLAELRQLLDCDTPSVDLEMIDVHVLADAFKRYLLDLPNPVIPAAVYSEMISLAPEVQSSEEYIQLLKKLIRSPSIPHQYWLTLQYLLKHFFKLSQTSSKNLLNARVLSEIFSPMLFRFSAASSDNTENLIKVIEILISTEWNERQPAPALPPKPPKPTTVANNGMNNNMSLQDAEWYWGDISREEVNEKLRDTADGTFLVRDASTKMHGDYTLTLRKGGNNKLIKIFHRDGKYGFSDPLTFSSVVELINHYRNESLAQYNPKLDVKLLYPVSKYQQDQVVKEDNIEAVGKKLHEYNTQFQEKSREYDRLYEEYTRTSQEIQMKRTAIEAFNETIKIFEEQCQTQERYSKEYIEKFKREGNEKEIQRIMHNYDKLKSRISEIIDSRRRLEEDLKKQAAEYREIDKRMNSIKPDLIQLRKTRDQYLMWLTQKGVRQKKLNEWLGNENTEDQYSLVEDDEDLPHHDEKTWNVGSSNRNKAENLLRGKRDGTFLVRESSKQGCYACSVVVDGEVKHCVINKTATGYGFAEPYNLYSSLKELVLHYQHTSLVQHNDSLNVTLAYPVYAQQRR

For `CN1CCN(CCn2c(-c3ccccc3)c(C=C3Oc4cc(O)cc(O)c4C3=O)c3ccccc32)CC1` [Example 159, 4,6-dihydroxy-2-({1-[2-(4-methylpiperazin-1-yl)ethyl]-2-phenyl-1H-indol-3-yl}methylene)-1-benzofuran-3(2H)-one], the IC50 at PI3K-alpha (read-out: PI3Kα Avg. IC50) came to 2860 nM; against PI3K-gamma, 5120 nM; at human TOR, 1800 nM.
For the molecule `O=C1/C(=C/c2c[nH]c3ccc(Cl)cc23)Oc2cc(O)cc(O)c21` [Example 60, (2Z)-2-[(5-chloro-1H-indol-3-yl)methylene]-4,6-dihydroxy-1-benzofuran-3(2H)-one], the 50% inhibitory concentration (IC50) against PI3K-alpha (PI3Kα Avg. IC50) was 492 nM; against PI3K-gamma, 3630 nM; at human TOR, 11000 nM.
Consider `Cn1c(-c2ccccc2)c(/C=C2\Oc3cccc(O)c3C2=O)c2ccccc21` [Example 442, (2Z)-4-Hydroxy-2-[(1-methyl-2-phenyl-1H-indol-3-yl)methylene]benzofuran-3(2H)-one], for which the IC50 is greater than 5100 nM at PI3K-alpha (read-out: PI3Kα Avg. IC50), greater than 5100 nM against PI3K-gamma and greater than 20000 nM at human TOR.
With `CN(C)CCCn1c(-c2ccccc2)c(C=C2Oc3cc(O)cc(O)c3C2=O)c2ccccc21` [Example 156, 2-({1-[3-(dimethylamino)propyl]-2-phenyl-1H-indol-3-yl}methylene)-4,6-dihydroxy-1-benzofuran-3(2H)-one], the IC50 was 1290 nM at PI3K-alpha (read-out: PI3Kα Avg. IC50), 6000 nM against PI3K-gamma and 1600 nM at human TOR.
The matching figures for `COc1ccc2c(c1)c(/C=C1\Oc3cc(NC(C)=O)ccc3C1=O)cn2CCCN(C)C` [Example 407, N-(2Z)-[2-({1-[3-(Dimethylamino)propyl]-5-methoxy-1H-indol-3-yl}methylene)-3-oxo-2,3-dihydro-1-benzofuran-6-yl]acetamide]: greater than 10000 nM, greater than 10000 nM and greater than 20000 nM.
As to `CNC(=O)Nc1ccc2c(c1)C(=O)/C(=C/c1c(-c3nn(C)cc3C(F)(F)F)[nH]c3ccc(OC)cc13)O2` [Compound 724, 1-[(2Z)-2-({5-methoxy-2-[1-methyl-4-(trifluoromethyl)-1H-pyrazol-3-yl]-1H-indol-3-yl}methylidene)-3-oxo-2,3-dihydro-1-benzofuran-5-yl]-3-methylurea], the values for the IC50 on PI3K-alpha (read-out: PI3Kα Avg. IC50), at PI3K-gamma and at human TOR were 4.7 nM, 30.7 nM and 20 nM, respectively.
On the same counts, the results for `CNC(=O)Nc1ccc2c(c1)C(=O)/C(=C/c1c(-c3cn(C)nc3C)[nH]c3ccc(OC)cc13)O2` [Compound 722, 1-[(2Z)-2-{[2-(1,3-dimethyl-1H-pyrazol-4-yl)-5-methoxy-1H-indol-3-yl]methylidene}-3-oxo-2,3-dihydro-1-benzofuran-5-yl]-3-methylurea] are 1.25 nM, 5 nM and 2 nM.
With `O=C1C(=Cc2c(-c3ccccc3)n(CCN3CCOCC3)c3ccccc23)Oc2cc(O)cc(O)c21` [Example 147, 4,6-dihydroxy-2-{[1-(2-morpholin-4-ylethyl)-2-phenyl-1H-indol-3-yl]methylene}-1-benzofuran-3(2H)-one], the results for the IC50 at PI3K-alpha (read-out: PI3Kα Avg. IC50), on PI3K-gamma and at human TOR were 2450 nM, 6000 nM and 1080 nM, respectively.
The matching figures for `N#CCCCn1cc(C=C2Oc3cc(O)cc(O)c3C2=O)c2c(O)cccc21` [Example 257, 4-{3-[(4,6-dihydroxy-3-oxo-1-benzofuran-2(3H)-ylidene)methyl]-4-hydroxy-1H-indol-1-yl}butanenitrile]: 180 nM, 2240 nM and 12000 nM.
The matching figures for `N#CCCCCCn1c(-c2ccccc2)c(C=C2Oc3cc(O)cc(O)c3C2=O)c2ccccc21` [Example 225, 6-{3-[(4,6-dihydroxy-3-oxo-1-benzofuran-2(3H)-ylidene)methyl]-2-phenyl-1H-indol-1-yl}hexanenitrile]: 968 nM, greater than 10000 nM and 700 nM.
The matching figures for `COc1ccc2[nH]c(-c3c(C)nn(C)c3C)c(/C=C3\Oc4ccc(NC(=O)Nc5ccc(C(=O)N(C)CCN6CCCC6)cc5)cc4C3=O)c2c1` [Compound 701, 4-({[(2Z)-2-{[5-methoxy-2-(1,3,5-trimethyl-1H-pyrazol-4-yl)-1H-indol-3-yl]methylidene}-3-oxo-2,3-dihydro-1-benzofuran-5-yl]carbamoyl}amino)-N-methyl-N-(2-pyrrolidin-1-ylethyl)benzamide]: 0.3 nM, 3 nM and 1 nM.
In the case of `COc1ccc2c(c1)c(/C=C1\Oc3cc(O)ccc3C1=O)cn2CCCN(C)C` [Example 324, (2Z)-2-({1-[3-(Dimethylamino)propyl]-5-methoxy-1H-indol-3-yl}methylene)-6-hydroxy-1-benzofuran-3(2H)-one], the IC50 on PI3K-alpha (read-out: PI3Kα Avg. IC50) is 91.5 nM; on PI3K-gamma it was 656 nM; on human TOR, 365 nM.
The matching figures for `CNC(=O)Nc1ccc2c(c1)C(=O)/C(=C/c1c(-c3cnn(C)c3C)[nH]c3ccc(OC)cc13)O2` [Compound 723, 1-[(2Z)-2-{[2-(1,5-dimethyl-1H-pyrazol-4-yl)-5-methoxy-1H-indol-3-yl]methylidene}-3-oxo-2,3-dihydro-1-benzofuran-5-yl]-3-methylurea]: 1 nM, 4.1 nM and 3 nM.
For the molecule `Cn1cc(/C=C2\Oc3cc(O)cc(O)c3C2=O)c2c(-c3ccncc3)cccc21` [Example 373, (2Z)-4,6-Dihydroxy-2-[(1-methyl-4-pyridin-4-yl-1H-indol-3-yl)methylene]-1-benzofuran-3(2H)-one], the concentration for half-maximal inhibition (IC50) at PI3K-alpha (read-out: PI3Kα Avg. IC50) is 4770 nM; at PI3K-gamma, greater than 10000 nM; at human TOR it was 300 nM.
Turning to `CNC(=O)Nc1ccc2c(c1)O/C(=C\c1cn(CCCN(C)C)c3ccc(OC)cc13)C2=O` [Example 406, 1-(2Z)-[2-({1-[3-(Dimethylamino)propyl]-5-methoxy-1H-indol-3-yl}methylene)-3-oxo-2,3-dihydro-1-benzofuran-6-yl]-3-methyl urea], the half-inhibitory concentration (IC50) is greater than 10000 nM at PI3K-gamma and greater than 20000 nM on human TOR.
On to `COc1ccc(-c2cccc3c2c(/C=C2\Oc4cc(O)cc(O)c4C2=O)cn3C)cn1` [Example 369, (2Z)-4,6-Dihydroxy-2-{[4-(6-methoxypyridin-3-yl)-1-methyl-1H-indol-3-yl]methylene}-1-benzofuran-3(2H)-one], for which the half-inhibitory concentration (IC50) at PI3K-alpha (read-out: PI3Kα Avg. IC50) was 1050 nM; at human TOR, 84.5 nM.
On to `Cc1cccc2c(/C=C3\Oc4cc(O)cc(O)c4C3=O)c[nH]c12` [Example 49, (2Z)-4,6-dihydroxy-2-[(7-methyl-1H-indol-3-yl)methylene]-1-benzofuran-3(2H)-one], for which the half-inhibitory concentration (IC50) was 2430 nM on PI3K-alpha (read-out: PI3Kα Avg. IC50) and greater than 5000 nM on human TOR.
The matching figures for `O=C1C(=Cc2c[nH]c3c(Br)cccc23)Oc2cc(O)cc(O)c21` [Example 244, 2-[(7-bromo-1H-indol-3-yl)methylene]-4,6-dihydroxy-1-benzofuran-3(2H)-one]: 1960 nM and 18000 nM.
On the same counts, the results for `CC(C)Oc1ccc(-c2c(C=C3Oc4cc(O)cc(O)c4C3=O)c3ccccc3n2C)cc1` [Example 261, 4,6-dihydroxy-2-{[2-(4-isopropoxyphenyl)-1-methyl-1H-indol-3-yl]methylene}-1-benzofuran-3(2H)-one] are 1980 nM and 680 nM.
On the same counts, the results for `O=C1C(=Cc2c(Br)[nH]c3ccccc23)Oc2cc(O)cc(O)c21` [Example 80, 2-[(2-bromo-1H-indol-3-yl)methylene]-4,6-dihydroxy-1-benzofuran-3(2H)-one] are greater than 10000 nM and 490 nM.
Regarding `N#CCCCn1cc(C=C2Oc3cc(O)cc(O)c3C2=O)c2ccccc21` [Example 241, 4-{3-[(4,6-dihydroxy-3-oxo-1-benzofuran-2(3H)-ylidene)methyl]-1H-indol-1-yl}butanenitrile], the results for the half-maximal inhibitory concentration (IC50) at PI3K-alpha (read-out: PI3Kα Avg. IC50) and at human TOR were 4710 nM and greater than 20000 nM, respectively.
On the same counts, the results for `Cn1cc(C=C2Oc3cc(O)ccc3C2=O)c2ccccc21` [Example 8, 6-hydroxy-2-[(1-methyl-1H-indol-3-yl)methylene]-1-benzofuran-3(2H)-one] are greater than 10000 nM and greater than 20000 nM.
The matching figures for `Cc1noc(C)c1-c1c(C=C2Oc3cc(O)cc(O)c3C2=O)c2ccccc2n1C` [Example 191, 2-{[2-(3,5-dimethylisoxazol-4-yl)-1-methyl-1H-indol-3-yl]methylene}-4,6-dihydroxy-1-benzofuran-3(2H)-one]: 4180 nM and 390 nM.
On to `O=C1C(=Cc2c(-c3ccc(F)c(Cl)c3)[nH]c3ccccc23)Oc2cc(O)cc(O)c21` [Example 212, 2-{[2-(3-chloro-4-fluorophenyl)-1H-indol-3-yl]methylene}-4,6-dihydroxy-1-benzofuran-3(2H)-one], for which the results for the IC50 at PI3K-alpha (read-out: PI3Kα Avg. IC50) and on human TOR were 1060 nM and 640 nM, respectively.
On the same counts, the results for `O=C1C(=Cc2c(-c3ccccc3)[nH]c3ccccc23)Oc2ccccc21` [Example 2, 2-[(2-phenyl-1H-indol-3-yl)methylene]-1-benzofuran-3(2H)-one] are greater than 10000 nM and greater than 20000 nM.
Consider `NC(=O)Cn1c(-c2ccccc2)c(C=C2Oc3cc(O)cc(O)c3C2=O)c2ccccc21` [Example 161, 2-{3-[(4,6-dihydroxy-3-oxo-1-benzofuran-2(3H)-ylidene)methyl]-2-phenyl-1H-indol-1-yl}acetamide], for which the IC50 on PI3K-alpha (read-out: PI3Kα Avg. IC50) was determined as 1760 nM; on human TOR, 600 nM.
On the same counts, the results for `Cc1c(C=C2Oc3cc(O)cc(O)c3C2=O)c2cc(Cl)ccc2n1C` [Example 233, 2-[(5-chloro-1,2-dimethyl-1H-indol-3-yl)methylene]-4,6-dihydroxy-1-benzofuran-3(2H)-one] are 2040 nM and 850 nM.
